We go through 4 compounds from patent US5808060A, “Fused isoindolones” (Cephalon, Inc., priority 1996, dated 1998).

The structures appear in SMILES notation.

In experiment [1] the target is protein kinase C. Nature of the experiment: PKC Activity Inhibition Assay. In kind it is biochemical. As for the experimental part: Fused isoindolones inhibited the activity of protein kinase C (Table VI). The protein kinase C assay has been disclosed (Murakata et al., U.S. Pat. No. 4,923,986; Kikkawa et al., J. Biol. Chem. 257: 13341-13348 (1982)). The assay was performed with several concentrations of fused isoindolones. The concentration at which protein kinase C was 50% inhibited (IC50) was determined.

Experiment [2] has as its system dissociated rat embryonic spinal cord culture (ChAT activity). The experiment can be described thus: Spinal Cord ChAT Activity Assay. In kind it is cell-based. The conditions noted are these: after 2-3 hour plating period; single application; ChAT measured 48 hours later; control cultures not treated. From the text: As noted, ChAT is a specific biochemical marker for functional cholinergic neurons. Cholinergic neurons represent the major cholinergic input into the hippocampal formation, olfactory nucleus, interpeduncular nucleus, cortex, amygdala, and parts of the thalamus. In the spinal cord, the motor neurons are cholinergic neurons which contain ChAT (Phelps et al., J. Comp. Neurol. 273: 459-472 (1988)). ChAT activity has been used to study the effects of neurotrophins (e.g., NGF or NT-3) on the survival and/or function of cholinergic neurons. The ChAT assay also serves as an indication of the regulation of ChAT levels within cholinergic neurons.
Fused isoindolone derivatives increased ChAT activity in the dissociated rat embryonic spinal cord culture assay (FIG. 1). […]
Methods: Fetal rat spinal cord cells were dissociated, and experiments were performed as described (Smith et al., J. Cell Biology 101: 1608-1621 (1985); Glicksman et al., J. Neurochem. 61: 210-221 (1993)). […] ChAT activity was measured after 2 days in vitro using a modification of the Fonnum procedure (Fonnum, J. Neurochem. 24: 407-409 (1975)) according to McManaman et al. and Glicksman et al. (McManaman et al., Developmental Biology 125: 311-320 (1988); Glicksman et al., J. Neurochem. 61: 210-221 (1993)).

Experiment [3] concerns the target trkA tyrosine kinase (Homo sapiens, UniProt P04629). Nature of the experiment: trkA Tyrosine Kinase Activity Inhibition Assay (ELISA). To be noted: PLCγ/pGEX substrate, 16 μM ATP, 37° C., 15 min, read-out: trk A INHIBITION IC50. In kind it is biochemical. Here is the method:
Fused isoindolones inhibited trkA tyrosine kinase activity as determined by ELISA. trkA is a high affinity receptor for neurotrophins. Fused isoindolones were added to 96-well microtiter plates that were previously coated with a phosphorylation substrate (phospholipase C-γ (PLCγ)/pGEX fusion protein) (see Rotin, et al., 11 EMBO J. 559, 1992). These compounds were then tested for the ability to inhibit substrate phosphorylation by the trkA tyrosine kinase.
Methods: 96-well ELISA plates (Nunc) were coated with 100 μl/well of the phosphorylation substrate (40 μg/ml) PLCγ/pGEX fusion protein) in 20 mM Tris, pH 7.6, 137 mM NaCl, and 0.02% NaN3 overnight at 4° C. […] Plates were washed three times with TBST, followed by two washes with TBS (TBST sans Tween-20). Fused pyrrolocarbozoles were then added at various concentrations to a reaction mixture (50 mM HEPES, pH 7.4, 5 mM MnCl2, 5 mM MgCl2, 140 mM NaCl, 16 μM ATP, and 15 ng trkA in a total volume of 100 μL.). As a negative control, 100 mM EDTA was included in the reaction solution. The plates were then incubated at 37° C. for 15 min. The detection antibody, monoclonal anti-phosphotyrosine antibody (UBI), was added at a dilution of 1:2000 in TBST, and incubated for 1 hour at 37° C. […] The colored product was read at 490 nm in a microplate reader (Biotek).

Experiment [4] has as its system basal forebrain cultures (ChAT activity). The experiment can be described thus: Basal Forebrain ChAT Activity Assay. Format: cell-based, rat. To be noted: preliminary assays; ChAT assessed 5 days after plating. As for the experimental part:
Fused isoindolone derivatives were tested for the ability to increase ChAT activity of basal forebrain cultures.
Methods: The basal forebrain was dissected from rat embryos (day 17 or 18 embryos) and the cells were dissociated with a neutral protease (Dispase™, Collaborative Research). Neurons were plated at a density of 5×10^4 cells/well (1.5×10^5 cells/cm^2) in poly-l-ornithine and laminin coated plates. Cells were cultured in serum-free N2 medium containing 0.05% BSA at 37° C. in a humidified atmosphere, 5% CO2 /95% air. ChAT activity was assessed 5 days after plating by using the ChAT assay as described in Example III(A)(1).

Sequence of trkA tyrosine kinase (P04629 33-796): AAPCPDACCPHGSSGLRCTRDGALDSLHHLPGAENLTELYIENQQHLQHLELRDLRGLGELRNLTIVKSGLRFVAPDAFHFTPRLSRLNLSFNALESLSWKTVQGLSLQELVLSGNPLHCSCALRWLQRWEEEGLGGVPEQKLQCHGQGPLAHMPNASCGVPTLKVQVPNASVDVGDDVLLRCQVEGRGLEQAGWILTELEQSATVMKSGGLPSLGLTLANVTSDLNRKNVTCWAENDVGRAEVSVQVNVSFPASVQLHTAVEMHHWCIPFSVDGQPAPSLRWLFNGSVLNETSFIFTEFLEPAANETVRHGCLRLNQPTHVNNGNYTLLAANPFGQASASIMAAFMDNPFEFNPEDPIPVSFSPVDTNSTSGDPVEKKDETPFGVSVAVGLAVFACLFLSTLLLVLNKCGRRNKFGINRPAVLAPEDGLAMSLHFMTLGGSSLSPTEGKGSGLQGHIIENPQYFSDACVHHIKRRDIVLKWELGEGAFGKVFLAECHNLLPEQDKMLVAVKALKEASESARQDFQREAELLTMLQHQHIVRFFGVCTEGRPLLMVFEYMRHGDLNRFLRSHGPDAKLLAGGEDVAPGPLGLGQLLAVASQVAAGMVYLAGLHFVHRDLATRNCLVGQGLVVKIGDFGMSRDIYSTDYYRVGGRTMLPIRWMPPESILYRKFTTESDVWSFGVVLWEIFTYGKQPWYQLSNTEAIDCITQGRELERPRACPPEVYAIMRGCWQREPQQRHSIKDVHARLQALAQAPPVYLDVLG

The IC50 is the concentration needed to halve the response being measured. In experiment [1], `O=C1NC(=O)c2c1c1c(c3c2-c2ccccc2C3)Cc2ccccc2-1` [Compound I-1, 1H-Indenyl[2,3-c]-1H-indenyl[2,3-e]isoindol-1,3-dione] gave an IC50 of 0.65 µM. With `O=C1NCc2c1c1c(c3c2-c2ccccc2C3)Cc2ccccc2-1` [Compound I-2, 1H-Indenyl[2,3-c]-1H-indenyl[2,3-e]-3H-isoindol-1-one], the “increased ChAT activity over control cultures (spinal cord)” value in experiment [2] is 150 % over control. In addition, the figures for the IC50 in experiment [3] and in experiment [1] were 0.19 µM and 2 µM, respectively. In the case of `O=C1NC(=O)c2c1c1c3ccccc3sc1c1sc3ccccc3c21` [Compound I-3, Benzothieno[2,3-c]benzothieno[2,3-e]isoindol-1,3-dione], in experiment [4], the “effect on basal forebrain ChAT activity” value is listed as “did not increase ChAT activity”.

For `O=C1NCc2c1c1c3ccccc3sc1c1sc3ccccc3c21` [Compound I-4, Benzothieno[2,3-c]benzothieno[2,3-e]isoindol-1-one], the “effect on basal forebrain ChAT activity” value in experiment [4] was “did not increase ChAT activity”.
